Patent US20040200144A1, “Plant growth regulator and a method of producing the regulator” (Dainichiseika Color & Chemicals Mfg. Co., Ltd., priority 2003, published 2004)

How the values were obtained:
Assay type in all cases: in vivo
[1] = tested on: Chinese cabbage young plants; assay: Dwarfing test of Chinese cabbage young plant; details: for Plant Height / Dwarfing Rate: 5 ml per cell on 4th day, measured 22nd day; for Dwarfing Rate: vs comparative group
Experimental: (§1) Dwarfing rate (%)=[(the plant height of the comparative group)−(the plant height of an addition group)/the plant height of the comparative group]×100
(§2) 18.4 g of potassium hydroxide was dissolved in 400 ml of distilled water at 20° C., 50 g of cinnamic acid was added to the potassium hydroxide solution and dissolved by stirring, the resultant solution was diluted with distilled water until the total volume of solution was 500 ml, and thus 10% cinnamic acid aqueous solution (pH 8.8) was prepared. The aqueous solution was further diluted with distilled water 100 times or 33.3 times, and 0.1% cinnamic acid aqueous solution and 0.3% cinnamic acid aqueous solution were prepared, respectively.
Nursery soil for house use was filled into a polyethylene joint pot (36 cells: 45×45×30 mm/cell), water was sufficiently given to the soil, and seeds of Chinese cabbage were sowed. After seeding, the pot was placed in the same greenhouse as described above to sprout. Subsequently, on the 4th day, the cinnamic aqueous acid solutions were added to the nursery soil in the joint pot.
Among 36 cells, 12 cells were prepared as a 0.1% cinnamic acid aqueous solution addition group, and 5 ml of the 0.1% cinnamic acid aqueous solution was added to the nursery soil of each cell. Another 12 cells were prepared as a 0.3% cinnamic acid aqueous solution addition group, and 5 ml of the 0.3% cinnamic acid aqueous solution was added to the nursery soil of each cell. Remaining 12 cells were prepared as a comparative group in which 5 ml of water is added to each cell, instead of the cinnamic acid aqueous solution. Subsequently, the cultivation of Chinese cabbage young plants in each group was continued under general conditions. On the 22nd day, the heights of young plants in each group were measured, the dwarfing rate (%) was calculated, and the dwarfing effect of cinnamic acid aqueous solution on Chinese cabbage young plants was examined. […]

cabbage young plants = assay: Dwarfing test of cabbage young plant; details: for Plant Height / Dwarfing Rate: 5 ml per cell on 4th day, measured 22nd day; for Dwarfing Rate: vs comparative group
Experimental: as §1, §2
Nursery soil for house use was filled into the same polyethylene joint pot as described above, water was sufficiently given to the soil, and seeds of cabbage were sowed. After seeding, the pot was placed in the same greenhouse as described above to sprout. Subsequently, on the 4th day, the cinnamic acid aqueous solutions were added to the nursery soil in the joint pot. Among 36 cells, 12 cells were prepared as a 0.1% cinnamic acid aqueous solution addition group, and 5 ml of the 0.1% cinnamic acid aqueous solution in Example 3 was added to the nursery soil of each cell. Another 12 cells were prepared as 0.3% cinnamic acid aqueous solution addition group, and 5 ml of the 0.3% cinnamic acid aqueous solution in Example 3 was added to the nursery soil of each cell. Remaining 12 cells were prepared as a comparative group in which 5 ml of water is added to each cell, instead of the cinnamic acid aqueous solution. Subsequently, the cultivation of cabbage young plants in each group was continued under general conditions. On the 22nd day, the heights of young plants in each group were measured, the dwarfing rate (%) was calculated, and the dwarfing effect of cinnamic acid aqueous solution on cabbage young plants was examined.

field peas young plants = assay: Dwarfing test of field peas young plant; details: for Plant Height / Dwarfing Rate: measured 24th day; for Dwarfing Rate: vs comparative group
Experimental: as §2
(§3) Nursery soil for house use was filled into paper joint pots (each with 24 cells: 34×43×50 mm/cell), water was sufficiently given to the soil, and seeds of carrots were sowed. After seeding, the pot was placed in the same greenhouse as described above to sprout. Subsequently, on the 5th day, the cinnamic aqueous acid solutions were added to the nursery soil in the joint pots. One of the joint pots (24 cells) was prepared as a 0.05% cinnamic acid aqueous solution addition group, and 5 ml of the 0.05% cinnamic acid aqueous solution was added to the nursery soil of each cell. Another one of the join pots was prepared as a 0.2% cinnamic acid aqueous solution addition group, and 5 ml of the 0.2% cinnamic acid aqueous solution was added to the nursery soil of each cell. The other one of the joint pots was prepared as a comparative group in which 5 ml of water is added to each cell, instead of the cinnamic acid aqueous solution. Subsequently, the cultivation of carrot young plants in each group was continued under general conditions. On the 27th day, the heights of young plants in each group were measured, the dwarfing rate (%) was calculated, and the dwarfing effect of cinnamic acid aqueous solution on carrot young plants was examined. […].
In the same way as in Example 5 except that seeds of field peas were sowed, 0.1% and 0.3% cinnamic acid solutions in example 3 were added to the nursery soil in the joint pot, and that heights of young plants in each group were measured on the 24th day, the dwarfing effect of cinnamic acid aqueous solution on field peas young plants was examined. […]

cauliflower young plants = assay: Dwarfing test of cauliflower young plant; details: for Plant Height / Dwarfing Rate: 5 ml per cell on 4th day, measured 20th day; for Dwarfing Rate: vs comparative group
Experimental: [The source words this procedure for another target and says it was used here with some conditions changed.] (§4) 50 g of sodium tripolyphosphate was dissolved in 400 ml of distilled water at 80° C., 17.5 g of cinnamic acid was added to the sodium tripolyphosphate solution and dissolved by stirring, the resultant solution was diluted with distilled water until the total volume of solution was 500 ml, and thus 3.5% cinnamic acid aqueous solution (pH 6.5) was prepared. The aqueous solution was further diluted with distilled water 70 times or 17.5 times, and 0.05% cinnamic acid aqueous solution and 0.2% cinnamic acid aqueous solution were prepared, respectively.
as §3

burdock young plants = assay: Dwarfing test of burdock young plant; details: for Plant Height / Dwarfing Rate: 5 ml per cell on 4th day, measured 20th day; for Dwarfing Rate: vs comparative group
Experimental: as §4, §3
In the same way as in Example 12 except that seeds of burdock were sowed, the dwarfing effect of cinnamic acid aqueous solution on burdock young plants was examined. […]

[2] = tested on: prince melon young plants; assay: Dwarfing test of prince melon young plant; details: for Plant Height / Dwarfing Rate: 5 ml per cell on 7th day, measured 27th day; for Dwarfing Rate: vs comparative group
Experimental: as §4, §3
In the same way as in Example 12 except that seeds of tomato were sowed, and that the cinnamic acid solutions were added to the nursery soil of the joint pot on the 7th day, the dwarfing effect of cinnamic acid aqueous solution on tomato young plants was examined. […].
In the same way as in Example 17 except that seeds of watermelon were sowed, and that plant heights were measured on the 27th day, the dwarfing effect of cinnamic acid aqueous solution on watermelon young plants was examined. […].
In the same way as in Example 21 except that seeds of prince melon were sowed, the dwarfing effect of cinnamic acid aqueous solution on prince melon young plants was examined. […]

[3] = 0.1% aqueous solution of Example 3, 5 ml per cell on 5th day
[4] = 0.3% aqueous solution of Example 3, 5 ml per cell on 5th day

Compound: O=C(O)C=Cc1ccccc1 [cinnamic acid]
- Plant Height ([1]; 0.1% aqueous solution): 7.0 cm
- Dwarfing Rate ([1]; 0.1% aqueous solution): 23.9%
- Plant Height ([1]; 0.3% aqueous solution): 6.9 cm
- Dwarfing Rate ([1]; 0.3% aqueous solution): 25.0%
- dwarfing effect ([1]; Chinese cabbage young plants, 0.1% and 0.3% aqueous solutions): effective
- Plant Height (cabbage young plants; 0.1% aqueous solution): 7.9 cm
- Dwarfing Rate (cabbage young plants; 0.1% aqueous solution): 14.1%
- Plant Height (cabbage young plants; 0.3% aqueous solution): 6.1 cm
- Dwarfing Rate (cabbage young plants; 0.3% aqueous solution): 33.7%
- dwarfing effect (cabbage young plants; cabbage young plants, 0.1% and 0.3% aqueous solutions): effective
- Plant Height (field peas young plants; [3]): 24.3 cm
- Dwarfing Rate (field peas young plants; [3]): 19.5%
- Plant Height (field peas young plants; [4]): 18.1 cm
- Dwarfing Rate (field peas young plants; [4]): 40.1%
- dwarfing effect (field peas young plants; field peas young plants, 0.1% and 0.3% aqueous solutions): effective
- Plant Height (cauliflower young plants; 0.05% aqueous solution): 6.8 cm
- Dwarfing Rate (cauliflower young plants; 0.05% aqueous solution): 22.7%
- Plant Height (cauliflower young plants; 0.2% aqueous solution): 5.0 cm
- Dwarfing Rate (cauliflower young plants; 0.2% aqueous solution): 43.2%
- dwarfing effect (cauliflower young plants; cauliflower young plants, 0.05% and 0.2% aqueous solutions): effective
- Plant Height (burdock young plants; 0.05% aqueous solution): 4.9 cm
- Dwarfing Rate (burdock young plants; 0.05% aqueous solution): 21.0%
- Plant Height (burdock young plants; 0.2% aqueous solution): 4.3 cm
- Dwarfing Rate (burdock young plants; 0.2% aqueous solution): 30.6%
- dwarfing effect (burdock young plants; burdock young plants, 0.05% and 0.2% aqueous solutions): effective
- Plant Height ([2]; 0.05% aqueous solution): 5.3 cm
- Dwarfing Rate ([2]; 0.05% aqueous solution): 5.4%
- Plant Height ([2]; 0.2% aqueous solution): 4.1 cm
- Dwarfing Rate ([2]; 0.2% aqueous solution): 26.8%
- dwarfing effect ([2]; prince melon young plants, 0.05% and 0.2% aqueous solutions): effective
